Data on eleven molecules can be found in US20260193644A1, “Compositions and Methods For Modulation of Tumor Suppressors and Oncogenes” (FLAGSHIP PIONEERING INNOVATIONS VII, LLC, priority 2022, published 2026).

The subject of assay [1] is HCT116 cells. As to the kind of experiment: WST-1 proliferation assay on HCT116 cells treated with peptide. Format: cell-based. The protocol:
Proliferation: HCT-116 cells were plated in 96 well plate (5,000 cells/well) grown in standard media supplemented with 10% FBS. After 48 hours incubation at 37° C. (5% CO2), the cells are subjected to the WST-1 ([…]) assay. The WST-1 assay (Sigma) is a measure of the metabolic activity (i.e. proliferative rate) of cells. […]
(In general: Tetrazolium assays rely on reduction of a dye to a coloured formazan, in cell work by metabolically active cells.)

The subject of assay [2] is U2OS cells. Kind of assay: WST-1 proliferation assay on U2OS cells treated with peptide. It counts as cell-based.
Setting [3] is: Low sera (continued), 0.5 uM, head 3 SD.
[4] abbreviates: Low sera (continued), 0.1 uM, head 2 SD.
Setting [5] is: Low sera (continued), 0.1 uM, head 4 SD.

Where “and” joins values, the source holds several entries; their conditions need not be identical. Equal values may be shown once.

“SEQ ID NO: 28759: peptide hit of Table E; sequence only in Sequence Listing (MKKSCRWVFFLITKSLFKETVA; listed as Homo sapiens)”: the “proliferation hit score, High sera” value in assay [1] (0.5 uM, head 3 SD) is −1.466 SD; in assay [1] (5 uM, head 3 sd), −1.78 SD; in assay [2] (5 uM, head 5 SD), 1.2 SD. Also, the “proliferation hit score, Low sera” value in assay [1] (setting [3]) is 0.5212 SD; in assay [1] (Low sera, 5 uM, head 2 SD), −3.329 SD; in assay [2] (setting [3]), −1.934 SD; in assay [2] (Low sera, 5 uM, head 2 SD), −4.99 SD.

On to “SEQ ID NO: 29230: peptide hit of Table E; sequence only in Sequence Listing (REQVPGMGGKSWLFFYSLVFCALLPLPRREDPFKLF; listed as Homo sapiens)”, for which the “proliferation hit score, High sera” value in assay [1] (0.1 uM, head 3 SD) is on record as 2.159 SD; in assay [1] (1 uM, head 2 SD), −0.4364 SD; in assay [1] (10 uM, head 4 SD), 0.2713 SD; in assay [2] (1 uM, head 5 SD), −5.771 SD; in assay [2] (10 uM, head 8 SD) it was −5.758 SD. In addition, the “proliferation hit score, Low sera” value is given as −1.09 SD in assay [1] (Low sera, 1 uM, head 3 SD); −2.162 SD in assay [1] (Low sera, 10 uM, head 3 SD); −2.296 SD in assay [2] (setting [4]); 2.01 SD in assay [2] (setting [5]); 3.875 SD in assay [2] (Low sera, 1 uM, head 5 SD); 2.682 SD in assay [2] (Low sera, 10 uM, head 6 SD).

Take “SEQ ID NO: 33599: ORF peptide; sequence only in Sequence Listing (MCLGLLFCFMPLSLVVSSEEARFKVAADLCGFATGNSW; listed as Homo sapiens)”: the “proliferation hit score, High sera” value in assay [1] (0.1 uM, head 3 SD) is 0.5427 SD; in assay [1] (1 uM, head 2 SD), −0.6105 SD; in assay [1] (10 uM, head 4 SD), −4.843 SD; in assay [2] (1 uM, head 5 SD) it was −2.566 SD; in assay [2] (10 uM, head 8 SD) it was −14.68 SD. The “proliferation hit score, Low sera” value in assay [1] (Low sera, 1 uM, head 3 SD) is listed as −0.9914 SD; in assay [1] (Low sera, 10 uM, head 3 SD), −5.29 SD; in assay [2] (setting [4]), −0.8886 SD; in assay [2] (setting [5]), 2.01 SD; in assay [2] (Low sera, 1 uM, head 5 SD), 4.323 SD; in assay [2] (Low sera, 10 uM, head 6 SD), −8.391 SD.

As to “SEQ ID NO: 33681: peptide hit of Table E; sequence only in Sequence Listing (IMAIFFFFCIIVSSLPTAELGTENACSTCLLNE; listed as Homo sapiens)”, the “proliferation hit score, High sera” value is listed as 0.9926 SD in assay [1] (0.1 uM, head 3 SD); −3.672 SD in assay [1] (1 uM, head 2 SD); −8.606 SD in assay [1] (10 uM, head 4 SD); −0.8283 SD in assay [2] (1 uM, head 5 SD); −10.57 SD in assay [2] (10 uM, head 8 SD). Further, the “proliferation hit score, Low sera” value in assay [1] (Low sera, 1 uM, head 3 SD) is given as 0.1255 SD; in assay [1] (Low sera, 10 uM, head 3 SD), −2.584 SD; in assay [2] (setting [4]), −1.01 SD; in assay [2] (setting [5]) it was 4.988 SD; in assay [2] (Low sera, 1 uM, head 5 SD), 9.376 SD; in assay [2] (Low sera, 10 uM, head 6 SD) it was −6.861 SD.

With “SEQ ID NO: 34047: peptide hit of Table E; sequence only in Sequence Listing (MHINYFFFLKLFLSLQNLILALDLRRESLTRDETQ; listed as Homo sapiens)”, the “proliferation hit score, High sera” value is on record as 0.5338 SD in assay [1] (0.5 uM, head 3 SD); 0.008734 SD in assay [1] (5 uM, head 3 sd); −6.825 SD in assay [2] (5 uM, head 5 SD). In addition, the “proliferation hit score, Low sera” value is given as 1.561 SD in assay [1] (setting [3]); 0.3241 SD in assay [1] (Low sera, 5 uM, head 2 SD); 2.331 SD in assay [2] (setting [3]); −5.958 SD in assay [2] (Low sera, 5 uM, head 2 SD).

Regarding “SEQ ID NO: 38017: peptide hit of Table E; sequence only in Sequence Listing (GVFVVARDRRRRELRTGAFSLLLGVVALLPLCGKRIQALPRACGCGGPEVLVVPR; listed as Homo sapiens)”, the “proliferation hit score, High sera” value in assay [1] (0.5 uM, head 3 SD) is listed as −0.9491 SD; in assay [1] (5 uM, head 3 sd) it was −1.457 SD; in assay [2] (5 uM, head 5 SD) it was −3.812 SD. In addition, the “proliferation hit score, Low sera” value was −0.1996 SD in assay [1] (setting [3]); −1.525 SD in assay [1] (Low sera, 5 uM, head 2 SD); 2.343 SD in assay [2] (setting [3]); −2.719 SD in assay [2] (Low sera, 5 uM, head 2 SD).

As for “SEQ ID NO: 38073: peptide hit of Table E; sequence only in Sequence Listing (MTVSLFLLLATSQSQDGCCDSGSCPNSRQQEGHGAAPASSCLPIP; listed as Homo sapiens)”, the “proliferation hit score, High sera” value in assay [1] (0.5 uM, head 3 SD) is 0.3814 SD; in assay [1] (5 uM, head 3 sd) it was −0.2232 SD; in assay [2] (5 uM, head 5 SD), −4.132 SD. Also, the “proliferation hit score, Low sera” value in assay [1] (setting [3]) is on record as 0.586 SD; in assay [1] (Low sera, 5 uM, head 2 SD), 0.1141 SD; in assay [2] (setting [3]), 3.652 SD; in assay [2] (Low sera, 5 uM, head 2 SD), −1.571 SD.

Regarding “SEQ ID NO: 38076: ORF peptide; sequence only in Sequence Listing (MHLLLLPVIFLPWVLPQHKHTSATPGFSSEKQFMSETENQTANVKFY; listed as Homo sapiens)”, the “proliferation hit score, High sera” value is listed as −0.8521 SD in assay [1] (0.5 uM, head 3 SD); −1.476 SD in assay [1] (5 uM, head 3 sd); −0.8798 SD in assay [2] (5 uM, head 5 SD). Besides, the “proliferation hit score, Low sera” value in assay [1] (setting [3]) is listed as 0.1011 SD; in assay [1] (Low sera, 5 uM, head 2 SD) it was −0.293 SD; in assay [2] (setting [3]), 3.033 SD; in assay [2] (Low sera, 5 uM, head 2 SD), 0.2974 SD.

For “SEQ ID NO: 38081: peptide hit of Table E; sequence only in Sequence Listing (MRRAWRPRLLGAALVAH; listed as Homo sapiens)”, the “proliferation hit score, High sera” value in assay [1] (0.1 uM, head 3 SD) is listed as −0.4952 SD; in assay [1] (1 uM, head 2 SD), −0.4884 SD; in assay [1] (10 uM, head 4 SD), −0.5065 SD; in assay [2] (1 uM, head 5 SD) it was −15.19 SD; in assay [2] (10 uM, head 8 SD) it was −3.67 SD. In addition, the “proliferation hit score, Low sera” value in assay [1] (Low sera, 1 uM, head 3 SD) was −3.589 SD; in assay [1] (Low sera, 10 uM, head 3 SD), −2.477 SD; in assay [2] (setting [4]), −3.47 SD; in assay [2] (setting [5]), 2.082 SD; in assay [2] (Low sera, 1 uM, head 5 SD) it was 1.521 SD; in assay [2] (Low sera, 10 uM, head 6 SD), −2.322 SD.

B1: SEQ ID NO: 26298: peptide hit of Table E; sequence only in Sequence Listing (peptide, listed as Homo sapiens)
chain: VQSGKCESSVLGYSATCLPDMGRWRVSSVESWPFASTGGKLAIATAGTGTQAAPRPFLIRPPDSWALALALM
As for B1, in assay [2] (setting [3]), the “proliferation hit score, Low sera” value is 2.391 SD and 2.95 SD.

B2: SEQ ID NO: 34508: ORF peptide; sequence only in Sequence Listing (peptide, listed as Homo sapiens)
chain: LPLYPLHRKWAGSGLLVFAAPAARAQQGPGEMATVPAPGRTGERALPPPHVSARASFLGSTLWM
In the case of B2, the “proliferation hit score, High sera” value in assay [1] (0.1 uM, head 3 SD) is recorded as −5.097 SD; in assay [1] (0.5 uM, head 3 SD) it was 0.2038 SD; in assay [1] (1 uM, head 2 SD), −2.867 SD; in assay [1] (5 uM, head 3 sd) it was −0.02329 SD; in assay [1] (10 uM, head 4 SD), −5.856 SD; in assay [2] (1 uM, head 5 SD), −1.711 SD. In addition, the “proliferation hit score, High sera” value is on record as −0.8798 SD in assay [2] (5 uM, head 5 SD) and −12.11 SD in assay [2] (10 uM, head 8 SD). Also, the “proliferation hit score, Low sera” value in assay [1] (setting [3]) is listed as 0.9567 SD; in assay [1] (Low sera, 1 uM, head 3 SD) it was −1.6 SD; in assay [1] (Low sera, 5 uM, head 2 SD), 1.932 SD; in assay [1] (Low sera, 10 uM, head 3 SD) it was −3.628 SD; in assay [2] (setting [4]), 1.335 SD; in assay [2] (setting [5]), 3.475 SD. Besides, the “proliferation hit score, Low sera” value in assay [2] (setting [3]) is given as 5.043 SD; in assay [2] (Low sera, 1 uM, head 5 SD) it was 4.275 SD; in assay [2] (Low sera, 5 uM, head 2 SD), 1.344 SD; in assay [2] (Low sera, 10 uM, head 6 SD), −11.74 SD.
